Laboratory results published in PMC9851200, “Multiparameter phenotypic screening for endogenous TFEB and TFE3 translocation identifies novel chemical series modulating lysosome function” (Autophagy, 2022).
Entries after “also recorded” stand apart in the source; their conditions may differ.

Experiments:
endogenous TFEB = test: TFEB nuclear translocation, immunocytochemistry high-content imaging; format: cell-based; details: for TFEB %: PKIS2 primary screening
endogenous TFE3 = test: TFE3 nuclear translocation, immunocytochemistry high-content imaging; format: cell-based; details: for TFE3 %: PKIS2 primary screening
SH-SY5Y cells [1] = test: Chemotype enrichment analysis of PKIS2 primary screen hit categories; details: PKIS2 primary screening, hit category
SH-SY5Y cells [2] = details: for DQ Intensity / DQ Spot: PKIS2 primary screening; for DQ Intensity: DQ Red BSA intensity; for DQ Spot: DQ Red BSA spot count
Excerpt: The PKIS2 Library was supplied by The Structural Genomics Consortium at the University of North Carolina at Chapel Hill.

SH-SY5Y cells [3] = test: AK (adenylate kinase) release ToxiLight cytotoxicity assay; details: for AK: PKIS2 primary screening
Description: Total cell lysis with 5 µL 5% Triton-X 100 (Sigma-Aldrich, T8787) is used as a positive control for the assay and toxicity is expressed as a percentage of luminescence under DMSO conditions.

SH-SY5Y cells [4] = test: Nuclear count from microscopy images (cellular growth and toxicity); details: PKIS2 primary screening

| SMILES | TFEB % (endogenous TFEB) [%] | TFE3 % (endogenous TFE3) [%] | Outcome (SH-SY5Y cells [1]) | DQ Intensity (SH-SY5Y cells [2]) | DQ Spot (SH-SY5Y cells [2]) | AK (SH-SY5Y cells [3]) | Nuclear Count (SH-SY5Y cells [4]) | TFEB translocation (in words) (endogenous TFEB; SH-SY5Y, 24 h treatment) | TFE3 translocation (in words) (endogenous TFE3; SH-SY5Y, 24 h treatment) | DQ Red BSA spot count / active lysosome count (in words) (SH-SY5Y cells [2]; SH-SY5Y, 24 h treatment) | Cellular toxicity (AK release and nuclear count, in words) (SH-SY5Y cells [3]; SH-SY5Y, 24 h treatment) |
| --- | --- | --- | --- | --- | --- | --- | --- | --- | --- | --- | --- |
| Fc1cc(Cl)ccc1Nc1ccnc2cc(-c3ccc(CN4CCOCC4)o3)ccc12 [UNC10225106A] | 10.01 | 18.79 | LYSO TOXIC | 127.02 | 67.74 | 77.69 | 98.32 |  |  |  |  |
| COc1cc2nccc(Nc3cccc(Oc4ccccc4)c3)c2cc1OC.Cl [UNC10225170A] | 18.56 | 29.93 | TFEB/TFE3 | 93.52 | 79.85 | 71.46 | 91.34 |  |  |  |  |
| CN1C(=O)C(Nc2ccccc2)=C(c2ccccc2)C1=O [UNC10225242A] | 6.14 | 13.56 | TOXIC | 102.22 | 99.91 | 287.85 | 117.96 |  |  |  |  |
| FC(F)(F)c1ccc(-c2ncn(CCCN3CCOCC3)c2-c2ccncc2)cc1 [UNC10225425A] | 5.42 | 9.69 | LYSO TOXIC | 74.41 | 77.10 | 109.44 | 88.34 |  |  |  |  |
| CC(=O)Nc1ccc(COc2ccc(Nc3ccnc4cc(-c5ccccn5)ccc34)cc2)cc1.Cl [UNC10225390A] | 19.19 | 50.24 | LYSO TOXIC | 42.39 | 42.67 | 71.40 | 89.28 |  |  |  |  |
| COc1ccc(-c2oc3ncnc(N)c3c2-c2ccc(OC)cc2)cc1 [UNC10225431A] | 4.87 | 9.25 | DQ Only | 144.39 | 120.26 | 79.67 | 51.87 |  |  |  |  |
| O=C(c1ccc(-c2cc(-c3c[nH]nc3-c3ccccn3)ccn2)cc1)N1CCOCC1 [UNC10225421A] | 4.79 | 13.41 | DQ Only | 150.15 | 98.06 | 76.85 | 121.31 |  |  |  |  |
| COc1cc2nccc(Nc3ccc(Oc4ccccc4)cc3)c2cc1OC.Cl [UNC10225483A] | 23.88 | 50.12 | LYSO TOXIC | 58.49 | 52.29 | 74.22 | 95.56 |  |  |  |  |
| CCNCC(Cc1ccccc1)NC(=O)c1cc(Br)c(-c2ccnc3[nH]ccc23)s1.Cl.Cl (centres unmarked) [UNC10225436A] | 20.72 | 35.73 | DQ / TFEB/TFE3 | 185.61 | 102.66 | 108.80 | 80.17 |  |  |  |  |
| COc1ccc(-c2nc3n(c2-c2ccncc2)CCC3)cc1 [UNC10225334A] | 5.64 | 11.25 | DQ Only | 120.06 | 119.57 | 77.50 | 82.13 |  |  |  |  |
| Cl.Cl.NCC(C(=O)Nc1cc(Br)c(-c2ccnc3[nH]ccc23)s1)c1ccccc1 (centres unmarked) [UNC10225027A] | 6.97 | 26.86 | TFE3 | 115.17 | 95.94 | 80.33 | 108.23 |  |  |  |  |
| c1ccc(Oc2ccc(Nc3ccnc4cc(-c5ccc(CNCCN6CCOCC6)o5)ccc34)cc2)nc1 [UNC10225054A] | 22.56 | 33.41 | LYSO TOXIC | 95.11 | 49.97 | 119.39 | 92.65 |  |  |  |  |
| CN(C)S(=O)(=O)c1cc(-c2ccc3nccc(-c4cccc(S(N)(=O)=O)c4)c3c2)cnc1N [UNC10225457A] | 2.30 | 3.13 | LYSO TOXIC | 100.41 | 77.18 | 74.17 | 78.66 |  |  |  |  |
| CN1CCN(Cc2cccc(-c3ccc4c(Nc5ccc(Oc6ccccc6)cc5)ccnc4c3)c2)CC1 [UNC10225484A, reference compound] | 9.01 | 42.01 | LYSO TOXIC | 129.44 | 68.80 | 84.86 | 88.62 | some TFEB and TFE3 translocation; also recorded: modest TFEB and 3 translocation at 2 µM | some TFEB and TFE3 translocation; also recorded: modest TFEB and 3 translocation at 2 µM | reduction in active lysosome spots; also recorded: correlated drop in DQ Red BSA spot count | no indication of cellular toxicity |
| CS(=O)(=O)c1ccc(-c2nc3n(c2-c2ccncc2)CCC3)cc1 [UNC10224995A] | 6.71 | 13.24 | TOXIC | 130.38 | 113.84 | 200.60 | 122.53 |  |  |  |  |
| Cc1ccc(O)cc1Nc1ccnc2ccc(C(C)(C)C)cc12 [UNC10225479A] | 23.46 | 19.57 | LYSO TOXIC | 91.49 | 60.27 | 75.82 | 78.69 |  |  |  |  |
| Fc1cc(Cl)ccc1Nc1ccnc2cc(I)ccc12 [UNC10225189A] | 3.86 | 9.39 | LYSO TOXIC | 39.14 | 61.91 | 112.41 | 145.49 |  |  |  |  |
| c1ccc(Oc2ccc(Nc3ccnc4ccc(-c5ccccn5)cc34)cc2)cc1 [UNC10225215A] | 9.01 | 13.98 | LYSO TOXIC | 94.87 | 78.82 | 106.19 | 111.99 |  |  |  |  |
| CS(=O)(=O)CCNCc1ccc(-c2ccc3ncnc(Nc4ccc(OCc5ccccc5)c(Cl)c4)c3c2)o1.Cl [UNC10112604A] | 8.74 | 24.66 | TFE3 | 133.51 | 89.48 | 78.47 | 96.24 |  |  |  |  |
| Cl.Nc1ncnc2occ(-c3ccc(NC(=O)Nc4cc(C(F)(F)F)ccc4F)cc3)c12 [UNC10112792A] | 5.26 | 17.19 | LYSO TOXIC | 73.11 | 78.83 | 84.72 | 92.62 |  |  |  |  |
| CC(C)NCC(Cc1ccccc1)NC(=O)c1cc(Br)c(-c2ccnc3[nH]ccc23)s1.Cl.Cl (centres unmarked) [UNC10225078A] | 25.83 | 47.42 | LYSO TOXIC | 114.59 | 48.43 | 109.26 | 95.97 |  |  |  |  |
| COc1cccc(-c2cc(-c3c[nH]nc3-c3ccccn3)ccn2)c1 [UNC10225448A] | 6.19 | 7.93 | LYSO TOXIC | 60.35 | 69.14 | 109.46 | 116.22 |  |  |  |  |
